Experimental data: publication PMC8359193, “Summary of reference chemicals evaluated by the fish short‐term reproduction assay, OECD TG229, using Japanese Medaka, Oryzias latipes” (Journal of Applied Toxicology, 2021)
Structures can show the parent of a compound that is named as a salt.

System: Japanese medaka (Oryzias latipes)
Assay: Fish short-term reproduction assay (FSTRA, OECD TG229), 21-day flow-through exposure
Conditions: for Fertility rate (%) / Mortality (%) Female / Mortality (%) Male / Number of fertilized eggs / Number of total eggs / SSC Female / VTG (ng/mg of liver) Male / SSC Male / VTG (ng/mg of liver) Female: 21 days; for GSI Female / GSI Male / HSI Female / HSI Male / Length Female / Length Male / Weight Female / Weight Male: at completion of exposure
Protocol: The experimental studies on the FSTRA for the 16 chemicals were conducted in two laboratories in Japan, the National Institute for Environmental Studies (NIES, Lab‐1) and the Institute of Environmental Ecology, IDEA Consultants Inc. (Lab‐2), in accordance with OECD TG229 (OECD, [2012a]) (Table 1).
The NIES‐R strain of Japanese medaka (O. latipes), one of the orange‐red varieties, was used in all the 16 chemical studies. For the studies, healthy and mature male and female medakas at 16 ± 2 weeks old were selected from a single‐stock population, which were bred within the test facilities. The test fish were maintained in conditions similar to the assay for at least 7 days, and spawning status was checked during the acclimation period. On the day the chemical exposure commenced, to ensure balanced distribution of test fish between the treatment groups for the reproductive status of the fish, the replicate vessels (fish tanks), with each containing three male and female medaka, were distributed to each treatment and control group, for example, by a randomized block design based on the number of fertilized eggs laid in the last 5–7 days during the acclimation, in each assay.
The water solubility of the test chemical was also taken into consideration when deciding the highest test concentration. To set the lower concentrations, a spacing factor ranging between two and five was used. All assays included a dilution water control (DWC).
Test solutions at the selected concentrations were prepared by diluting a stock solution, which was prepared by an adequate method depending on the physicochemical properties of the test chemicals, for example, by simply mixing the test chemical in dilution water by stirring and/or sonicating for an appropriate time or by using a solid–liquid saturator. In the two laboratories, flow‐through exposure systems, in which a series of test solutions at the target concentrations can be continuously prepared and delivered to test vessels at controlled flow rates (Haselman et al., [2016]; Watanabe et al., [2017]), were used for the exposure experiments.
In the FSTRA, three mature adult males and females in a test vessel were exposed together to the test chemicals in flow‐through condition for 3 weeks. In all the assays, each treatment group, including the DWC group, contained four replicate tanks. During the exposure period, the fish were fed a sufficient amount of live brine shrimp nauplii (newly hatched Artemia sp.) for daily spawning ad libitum. Fecal material in the tanks was appropriately removed by siphoning after feeding. Water temperature of test solutions was recorded for at least one vessel in each treatment and control group every day and for all vessels at least once a week. Furthermore, dissolved oxygen and pH of test solutions were measured for all test vessels at least once a week. Mortality and abnormal behavior and appearance in the fish exposed to test chemicals were daily observed, and any fish that died were removed from the tank as soon as possible. To assess the reproductive status, all eggs females spawned were collected every day. At the completion of the chemical exposure, surviving fish in each tank were sampled.
The eggs females released on the bottom of the tank were collected by siphoning, and the egg clutches still on female abdomen were carefully picked from the body of the females captured using a small net. All the eggs collected were microscopically observed and separately counted for fertilized and unfertilized.

O=C(c1ccc(OCCN2CCCCC2)cc1)c1c(-c2ccc(O)cc2)sc2cc(O)ccc12 [RAL, Raloxifene hydrochloride]
LOEC for decrease of VTG in females (hepatic VTG, 21-day exposure, measured conc.): 721 µg/L
Fertility rate (%) (measured conc. 63.9 μg/L): 87%
Mortality (%) Female (measured conc. 63.9 μg/L): 0%
Mortality (%) Male (measured conc. 63.9 μg/L): 0%
Number of fertilized eggs (measured conc. 63.9 μg/L): 16
Number of total eggs (measured conc. 63.9 μg/L): 18 ± 4.2 /female/day
SSC Female (measured conc. 63.9 μg/L): 0 ± 0
VTG (ng/mg of liver) Male (measured conc. 63.9 μg/L): 19.6 ± 5.7 ng/mg of liver
GSI Female (measured conc. 63.9 μg/L): 9.6%
GSI Male (measured conc. 63.9 μg/L): 1.03%
HSI Female (measured conc. 63.9 μg/L): 3.2%
HSI Male (measured conc. 63.9 μg/L): 1.5%
Length Female (measured conc. 63.9 μg/L): 36.9 mm
Length Male (measured conc. 63.9 μg/L): 37.5 mm
Weight Female (measured conc. 63.9 μg/L): 555 mg
Weight Male (measured conc. 63.9 μg/L): 511 mg
Fertility rate (%) (measured conc. 203 μg/L): 86%
Mortality (%) Female (measured conc. 203 μg/L): 0%
Mortality (%) Male (measured conc. 203 μg/L): 0%
Number of fertilized eggs (measured conc. 203 μg/L): 14
Number of total eggs (measured conc. 203 μg/L): 16 ± 2.6 /female/day
SSC Female (measured conc. 203 μg/L): 0 ± 0
SSC Male (measured conc. 203 μg/L): 118 ± 15
VTG (ng/mg of liver) Female (measured conc. 203 μg/L): 652 ± 82.4 ng/mg of liver
VTG (ng/mg of liver) Male (measured conc. 203 μg/L): 30.2 ± 11.4 ng/mg of liver
GSI Female (measured conc. 203 μg/L): 10.2%
GSI Male (measured conc. 203 μg/L): 0.97%
HSI Female (measured conc. 203 μg/L): 2.9%
HSI Male (measured conc. 203 μg/L): 1.6%
Length Female (measured conc. 203 μg/L): 37.8 mm
Length Male (measured conc. 203 μg/L): 38.4 mm
Weight Female (measured conc. 203 μg/L): 600 mg
Weight Male (measured conc. 203 μg/L): 550 mg
Fertility rate (%) (measured conc. 721 μg/L): 82%
Mortality (%) Female (measured conc. 721 μg/L): 0%
Mortality (%) Male (measured conc. 721 μg/L): 0%
Number of fertilized eggs (measured conc. 721 μg/L): 14
Number of total eggs (measured conc. 721 μg/L): 17 ± 2.6 /female/day
SSC Female (measured conc. 721 μg/L): 0 ± 0
VTG (ng/mg of liver) Female (measured conc. 721 μg/L): 368 ± 68.4 ng/mg of liver
VTG (ng/mg of liver) Male (measured conc. 721 μg/L): 24.1 ± 13.7 ng/mg of liver
GSI Female (measured conc. 721 μg/L): 10.5%
GSI Male (measured conc. 721 μg/L): 0.96%
HSI Female (measured conc. 721 μg/L): 3.4%
HSI Male (measured conc. 721 μg/L): 1.5%
Length Female (measured conc. 721 μg/L): 38.8 mm
Length Male (measured conc. 721 μg/L): 39.0 mm
Weight Female (measured conc. 721 μg/L): 638 mg
Weight Male (measured conc. 721 μg/L): 612 mg
Fertility rate (%) (measured conc. 2080 μg/L): 72%
Mortality (%) Female (measured conc. 2080 μg/L): 0%
Mortality (%) Male (measured conc. 2080 μg/L): 0%
Number of fertilized eggs (measured conc. 2080 μg/L): 14
Number of total eggs (measured conc. 2080 μg/L): 19 ± 2.5 /female/day
SSC Female (measured conc. 2080 μg/L): 0 ± 0
VTG (ng/mg of liver) Female (measured conc. 2080 μg/L): 305 ± 99.8 ng/mg of liver
VTG (ng/mg of liver) Male (measured conc. 2080 μg/L): 17.2 ± 3.5 ng/mg of liver
GSI Female (measured conc. 2080 μg/L): 11.5%
GSI Male (measured conc. 2080 μg/L): 1.12%
HSI Female (measured conc. 2080 μg/L): 4.7%
HSI Male (measured conc. 2080 μg/L): 1.7%
Length Female (measured conc. 2080 μg/L): 38.8 mm
Length Male (measured conc. 2080 μg/L): 37.1 mm
Weight Female (measured conc. 2080 μg/L): 675 mg
Weight Male (measured conc. 2080 μg/L): 506 mg

C[C@]12CCC(=O)C[C@@H]1CC[C@@H]1[C@@H]2CC[C@]2(C)[C@@H](O)CC[C@@H]12 [DHT, 5α‐Dihydrotestosterone]
effect on male SSC, in words (21-day exposure): statistical significance
LOEC on female SSC (papillary process formation on anal fin) (21-day exposure, measured conc.): 1.03 µg/L
Fertility rate (%) (measured conc. 0.063 μg/L): 94%
Mortality (%) Female (measured conc. 0.063 μg/L): 0%
Mortality (%) Male (measured conc. 0.063 μg/L): 0%
Number of fertilized eggs (measured conc. 0.063 μg/L): 17
Number of total eggs (measured conc. 0.063 μg/L): 18 ± 5.6 /female/day
SSC Female (measured conc. 0.063 μg/L): 0 ± 0
SSC Male (measured conc. 0.063 μg/L): 72 ± 12
VTG (ng/mg of liver) Female (measured conc. 0.063 μg/L): 617 ± 374 ng/mg of liver
VTG (ng/mg of liver) Male (measured conc. 0.063 μg/L): 1.6 ± 0.4 ng/mg of liver
GSI Female (measured conc. 0.063 μg/L): 10.5%
GSI Male (measured conc. 0.063 μg/L): 1.15%
HSI Female (measured conc. 0.063 μg/L): 3.6%
HSI Male (measured conc. 0.063 μg/L): 1.5%
Length Female (measured conc. 0.063 μg/L): 32.9 mm
Length Male (measured conc. 0.063 μg/L): 33.4 mm
Weight Female (measured conc. 0.063 μg/L): 354 mg
Weight Male (measured conc. 0.063 μg/L): 377 mg
Fertility rate (%) (measured conc. 2.97 μg/L): 84%
Mortality (%) Female (measured conc. 2.97 μg/L): 0%
Mortality (%) Male (measured conc. 2.97 μg/L): 0%
Number of fertilized eggs (measured conc. 2.97 μg/L): 12
Number of total eggs (measured conc. 2.97 μg/L): 14 ± 3.7 /female/day
SSC Female (measured conc. 2.97 μg/L): 22 ± 14
SSC Male (measured conc. 2.97 μg/L): 78 ± 16
VTG (ng/mg of liver) Female (measured conc. 2.97 μg/L): 587 ± 306 ng/mg of liver
VTG (ng/mg of liver) Male (measured conc. 2.97 μg/L): 1.4 ± 0.7 ng/mg of liver
GSI Female (measured conc. 2.97 μg/L): 21.1%
GSI Male (measured conc. 2.97 μg/L): 1.21%
HSI Female (measured conc. 2.97 μg/L): 3.8%
HSI Male (measured conc. 2.97 μg/L): 1.7%
Length Female (measured conc. 2.97 μg/L): 32.8 mm
Length Male (measured conc. 2.97 μg/L): 33.6 mm
Weight Female (measured conc. 2.97 μg/L): 425 mg
Weight Male (measured conc. 2.97 μg/L): 411 mg
effect on fecundity (number of total eggs), in words (within the test concentrations, 21-day exposure): significantly reduced
